# From publication PMC5587642, “A Novel Benzocoumarin-Stilbene Hybrid as a DNA ligase I inhibitor with in vitro and in vivo anti-tumor activity in breast cancer models” (Scientific Reports, 2017)
# What was measured:
# MDA-MB-231 cells = experiment: MTT cell viability assay; format: cell-based, human; conditions: for inhibition at 10 µM: Homo sapiens, MDA-MB-231, 48 h, read-out: Antiproliferative activity at 10μM in MDA-MB-231; for inhibition at 10 µM / Antiproliferative activity at 10μM in MDA-MB-231: % inhibition
# Description: (§1) Cell viability assay was performed as described previously. Briefly, cells were seeded in 96 well plates and treated with different concentrations of compound 19 for 48 h. After drug treatment, MTT reagent was added in each well of the plate and cell viability was quantified by measuring the absorbance at 590 nm.
# [1] = tested on: 4T1 (Mouse Breast Cancer); experiment: MTT cell viability assay; format: cell-based; conditions: 10 µM
# Description: as §1
# A172 (Brain) = experiment: MTT cell viability assay; format: cell-based
# Description: as §1
# A549 (Lung) = experiment: MTT cell viability assay; format: cell-based
# Description: as §1
# DLD1 (Colon) = experiment: MTT cell viability assay; format: cell-based
# Description: as §1
# PANC-1 (Pancreas) = experiment: MTT cell viability assay; format: cell-based
# Description: as §1
# PLC/PRF/5 (Liver) = experiment: MTT cell viability assay; format: cell-based
# Description: as §1
# SK-OV-3 (Ovary) = experiment: MTT cell viability assay; format: cell-based
# Description: as §1
# FEN1 protein = biological target: T1, FEN1 protein (Homo sapiens, UniProt P39748); experiment: Flap cleavage assay; format: biochemical; conditions: compound 19 at 5, 10, 20 µM
# T1 construct: His-tag (C); made in house; host or cells: E. coli BL21DE3
# Description: Purification of FEN 1: Full length FEN1 DNA template was taken from pShuttle-FEN1hWT, a gift from Sheila Stewart (Addgene plasmid#35027) is subcloned into a pET41a expression vector containing C-terminal His-tag. pET41FEN1His freshly transformed into expression host BL21DE3 E. coli cells (Novagene), single colonies picked and inoculated in 5ml of LB media containing 50μg/ml of Kanamycin, grown for 3 to 4 hrs and further subcultured in 100 ml of LB medium containing 50μg/ml of Kanamycin and grown at 37°C till the OD reached to 0.6-0.7, induced at 0.5 mM IPTG at 16°C for 18hrs. Pellets were collected and lysed in 20 mM tris 150 mM NaCl (Lysis buffer) containing 1mM PMSF and 1mM benzamidine hydrochloride and purified by Ni-NTA affinity chromatography.
# Flap cleavage assay: All oligos were purchased from Integrated DNA Technologies and dissolved in nuclase free water at concentration of 100μM. FAM-labeled 25+6 Flap-mer (5’-[…]-3’*6FAM)) was annealed with 52- mer (5’-[…]-3’) and 27-mer (5’-[…]-3’) to form a complementary double strand flap cleavage substrate. […] The cleaved and uncleaved DNA molecules are separated on 15% Urea gel and bands were detected by Image Quant LAS 4010 (GE Healthcare).
# T1 sequence (P39748 whole entry): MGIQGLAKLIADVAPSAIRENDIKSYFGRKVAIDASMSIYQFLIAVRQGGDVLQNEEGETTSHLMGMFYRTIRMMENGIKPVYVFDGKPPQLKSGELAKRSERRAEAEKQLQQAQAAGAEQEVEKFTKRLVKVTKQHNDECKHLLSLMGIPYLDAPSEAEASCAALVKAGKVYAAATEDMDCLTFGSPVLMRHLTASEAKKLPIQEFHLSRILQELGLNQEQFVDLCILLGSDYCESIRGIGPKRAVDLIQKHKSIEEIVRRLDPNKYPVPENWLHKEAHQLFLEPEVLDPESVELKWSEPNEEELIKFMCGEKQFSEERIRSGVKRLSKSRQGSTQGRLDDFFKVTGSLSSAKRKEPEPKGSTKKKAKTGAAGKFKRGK
melting point [°C],Compound,inhibition at 10 µM (MDA-MB-231 cells) [%],further results
142 to 144,COc1ccc(/C=C/c2cc(=O)oc3c2ccc2ccccc23)cc1 [Compound 11],1.46,
,CN(C)c1ccc(/C=C/c2cc(=O)oc3c2ccc2ccccc23)cc1 [Compound 12],,Antiproliferative activity at 10μM in MDA-MB-231 (MDA-MB-231 cells): 4.62%
,N#Cc1ccc(/C=C/c2cc(=O)oc3c2ccc2ccccc23)cc1 [Compound 14],12.4,
145 to 146,COc1cccc(/C=C/c2cc(=O)oc3c2ccc2ccccc23)c1 [Compound 15],,
174 to 175,COc1cccc(OC)c1/C=C/c1cc(=O)oc2c1ccc1ccccc12 [Compound 16],> 50,"% Inhibition of cell viability at 10 µM, MDA-MB-231 (Breast) (MDA-MB-231 cells; 10 µM): 56.48%; % Inhibition of cell viability at 10 µM, 4T1 (Mouse Breast Cancer) [1]: 33.89%; % Inhibition of cell viability at 10 µM, A172 (Brain) (A172 (Brain)): NA (NA= Not active (% Inhibition <30%)); % Inhibition of cell viability at 10 µM, A549 (Lung) (A549 (Lung)): NA (NA= Not active (% Inhibition <30%)); % Inhibition of cell viability at 10 µM, DLD1 (Colon) (DLD1 (Colon)): NA (NA= Not active (% Inhibition <30%)); % Inhibition of cell viability at 10 µM, PANC-1 (Pancreas) (PANC-1 (Pancreas)): NA (NA= Not active (% Inhibition <30%)); % Inhibition of cell viability at 10 µM, PLC/PRF/5 (Liver) (PLC/PRF/5 (Liver)): NA (NA= Not active (% Inhibition <30%)); % Inhibition of cell viability at 10 µM, SK-OV-3 (Ovary) (SK-OV-3 (Ovary)): NA (NA= Not active (% Inhibition <30%))"
180 to 182,COc1ccc(/C=C/c2cc(=O)oc3c2ccc2ccccc23)cc1OC [Compound 17],,
172 to 173,COc1cc(/C=C/c2cc(=O)oc3c2ccc2ccccc23)cc(OC)c1OC [Compound 18],8.2,
168 to 170,COc1ccc(OC)c(/C=C/c2cc(=O)oc3c2ccc2ccccc23)c1 [Compound 20],7.53,
181 to 183,COc1ccc(/C=C/c2cc(=O)oc3c2ccc2ccccc23)c(OC)c1 [Compound 21],0.16,
170 to 171,COc1ccc(/C=C/c2cc(=O)oc3c2ccc2c(OC)cccc23)cc1 [Compound 23],6.04,
220 to 222,COc1cccc2c1ccc1c(/C=C/c3ccc([N+](=O)[O-])cc3)cc(=O)oc12 [Compound 24],20,
188 to 189,COc1cccc2c1ccc1c(/C=C/c3ccc(C#N)cc3)cc(=O)oc12 [Compound 25],27.9,
,COc1cc(/C=C/c2cc(=O)oc3c2ccc2c(OC)cccc23)cc(OC)c1 [Compound 26],,"Antiproliferative activity at 10μM in MDA-MB-231 (MDA-MB-231 cells): 50.03%; % Inhibition of cell viability at 10 µM, 4T1 (Mouse Breast Cancer) [1]: 36.12%; % Inhibition of cell viability at 10 µM, A549 (Lung) (A549 (Lung)): NA (NA= Not active (% Inhibition <30%)); % Inhibition of cell viability at 10 µM, DLD1 (Colon) (DLD1 (Colon)): NA (NA= Not active (% Inhibition <30%)); % Inhibition of cell viability at 10 µM, PANC-1 (Pancreas) (PANC-1 (Pancreas)): NA (NA= Not active (% Inhibition <30%))"
,COc1ccc(/C=C/c2cc(=O)oc3c2ccc2c(OC)cccc23)cc1OC [Compound 27],8.81,
178 to 179,COc1cccc(OC)c1/C=C/c1cc(=O)oc2c1ccc1c(OC)cccc12 [Compound 28],,
,COc1ccc(OC)c(/C=C/c2cc(=O)oc3c2ccc2c(OC)cccc23)c1 [Compound 29],10.4,
,COc1ccc(/C=C/c2cc(=O)oc3c2ccc2c(OC)cccc23)c(OC)c1 [Compound 30],17.9,
205 to 206,COc1cc(/C=C/c2cc(=O)oc3c2ccc2c(OC)cccc23)cc(OC)c1OC [Compound 31],1.7,
178 to 179,Cc1cccc2c1ccc1c(/C=C/c3ccccc3)cc(=O)oc12 [Compound 32],18.2,
238 to 239,Cc1cccc2c1ccc1c(/C=C/c3ccc([N+](=O)[O-])cc3)cc(=O)oc12 [Compound 33],6.12,
,COc1cc(/C=C/c2cc(=O)oc3c2ccc2c(C)cccc23)cc(OC)c1 [Compound 34],0.54,
,COc1ccc(/C=C/c2cc(=O)oc3c2ccc2c(C)cccc23)c(OC)c1 [Compound 35],12.8,
160 to 161,COc1cccc(OC)c1/C=C/c1cc(=O)oc2c1ccc1c(C)cccc12 [Compound 37],11.6,
,COc1cc(/C=C/c2cc(=O)oc3c2ccc2c(C)cccc23)cc(OC)c1OC [Compound 38],22,
,COc1ccc(/C=C/c2cc(=O)oc3c2ccc2c(C)cccc23)cc1OC [Compound 39],10.1,
,"O=C(O)c1cc[c]([Sb](=[O])([OH])[OH])cc1[N+](=O)[O-] [NSC13755, reference compound]",,Inhibition of FEN1 flap cleavage activity (FEN1 protein): less clevage
